Assays:
[1] = system: OVCAR3; test: MTT growth inhibition, OVCAR3; type: cell-based; settings: Homo sapiens, OVCAR-3, OVCAR3 cells, 72 hrs
Experimental: (§1) The growth inhibitory effects of avicin D and oxetane derivative were measured using the MTT [3-(4,5-dimethylthiazol-2-yl)-2,5-diphenyl tetrazolium bromide] reduction assay as described in Haridas et al. (2001). Cells were cultured with varying concentrations of avicin D or oxetane in 96-well plates for 72 hrs at 37° C. At the end of 72 hrs, cells were stained with MTT for 2 hrs and then incubated with lysis buffer (20% SDS in 50% N,N-dimethylformamide) for another 6 hrs. Optical density at 570 nm was used as a measure of cell viability.
(§2) The cell lines 769P, A498, CAKI-1, and CAKI-2 are derived from primary human renal-cell cancers (RCC). A549 is a human lung adenocarcinoma epithelial cell line. B16F10 is a mouse melanoma cell line. BT474, BT 474 M1, BT549, MCF7, […], and ZR751 are breast cancer cell lines. CCRF-CEM, Jurkat, and MOLT4 are leukemia cell lines. HELA is cell line derived from cervical caner. HepG2 is a human hepatocellular liver carcinoma cell line. JeKo-1 is a mantle cell lymphoma (MCL) cell line. LnCAP is a cell line was established from a metastatic lesion of human prostatic adenocarcinoma. MM.1 and RPMI-8226 are human multiple myeloma cell lines. OVCAR3 and SKOV3 are ovarian cancer cell lines. Panc-1 is a pancreatic cancer cell line. PC3 is a prostate cancer cell line. Raji is a Burkitt's lymphoma cell line. RL is a non-Hodgkin's lymphoma cell line. […]

[2] = system: GM0131; test: MTT growth inhibition, GM0131; type: cell-based; settings: GM0131 wild type human fibroblast cells, 72 hrs
Experimental: as §1, §2

[3] = system: LnCAP; test: MTT growth inhibition, LnCAP; type: cell-based, human; settings: Homo sapiens, LnCAP cells, 72 hrs
Experimental: as §1, §2

[4] = system: HS27; test: MTT growth inhibition, HS27; type: cell-based; settings: HS27 human foreskin fibroblast cells, 72 hrs
Experimental: as §1, §2

[5] = system: MM1; test: MTT growth inhibition, MM1; type: cell-based, human; settings: Homo sapiens, MM1 cells, 72 hrs
Experimental: as §1, §2

[6] = system: 3T3 L1; test: MTT growth inhibition, 3T3 L1; type: cell-based; settings: Mus musculus, 3T3 L1 fibroblast cells, 72 hrs
Experimental: as §1, §2

[7] = system: U266; test: MTT growth inhibition, U266; type: cell-based; settings: Homo sapiens, U-266, U266 cells, 72 hrs
Experimental: as §1, §2

[8] = system: A549; test: MTT growth inhibition, A549; type: cell-based, human; settings: Homo sapiens, A549 cells, 72 hrs
Experimental: as §1, §2

[9] = system: WSU-DLCL2; test: MTT growth inhibition, WSU-DLCL2; type: cell-based, human; settings: Homo sapiens, WSUDLCL2, WSU-DLCL2 cells, 72 hrs
Experimental: as §1, §2

[10] = system: CAKI-2; test: MTT growth inhibition, CAKI-2; type: cell-based, human; settings: Homo sapiens, CAKI-2 cells, 72 hrs
Experimental: as §1, §2

[11] = system: HepG2; test: MTT growth inhibition, HepG2; type: cell-based, human; settings: Homo sapiens, HepG2 cells, 72 hrs
Experimental: as §1, §2

[12] = system: A498; test: MTT growth inhibition, A498; type: cell-based, human; settings: Homo sapiens, A498 cells, 72 hrs
Experimental: as §1, §2

[13] = system: ZR751; test: MTT growth inhibition, ZR751; type: cell-based; settings: Homo sapiens, ZR-75-1, ZR751 cells, 72 hrs
Experimental: as §1, §2

[14] = system: CCRF-CEM; test: MTT growth inhibition, CCRF-CEM; type: cell-based; settings: Homo sapiens, CCRF-CEM cells, 72 hrs
Experimental: as §1, §2

[15] = system: B16F10; test: MTT growth inhibition, B16F10; type: cell-based, mouse; settings: Mus musculus, B16-F10, B16F10 cells, 72 hrs
Experimental: as §1, §2

[16] = system: Hela; test: MTT growth inhibition, Hela; type: cell-based; settings: Homo sapiens, Hela cells, 72 hrs
Experimental: as §1, §2

[17] = system: BT549; test: MTT growth inhibition, BT549; type: cell-based; settings: Homo sapiens, BT-549, BT549 cells, 72 hrs
Experimental: as §1, §2

[18] = system: BT474; test: MTT growth inhibition, BT474; type: cell-based; settings: Homo sapiens, BT-474, BT474 cells, 72 hrs
Experimental: as §1, §2

[19] = system: SKOV3; test: MTT growth inhibition, SKOV3; type: cell-based; settings: Homo sapiens, SK-OV-3, SKOV3 cells, 72 hrs
Experimental: as §1, §2

[20] = system: RL; test: MTT growth inhibition, RL; type: cell-based; settings: Homo sapiens, RL cells, 72 hrs
Experimental: as §1, §2

[21] = system: Jurkat; test: MTT growth inhibition, Jurkat; type: cell-based, human; settings: Homo sapiens, Jurkat cells, 72 hrs (Table 5)
Experimental: as §1, §2

[22] = system: CAKI-1; test: MTT growth inhibition, CAKI-1; type: cell-based, human; settings: Homo sapiens, CAKI-1 cells, 72 hrs
Experimental: as §1, §2

[23] = system: Panc-1; test: MTT growth inhibition, Panc-1; type: cell-based; settings: Homo sapiens, Panc-1 cells, 72 hrs
Experimental: as §1, §2

[24] = system: RPMI 8226; test: MTT growth inhibition, RPMI 8226; type: cell-based, human; settings: Homo sapiens, RPMI 8226 cells, 72 hrs
Experimental: as §1, §2

[25] = system: 769P; test: MTT growth inhibition, 769P; type: cell-based, human; settings: Homo sapiens, 769P cells, 72 hrs
Experimental: as §1, §2

[26] = system: U2OS; test: MTT growth inhibition, U2OS; type: cell-based, human; settings: Homo sapiens, U2OS cells, 72 hrs
Experimental: as §1, §2

[27] = system: Jurkat (human T-cell leukemia) cells; test: Reduction in cell viability, Jurkat cells (Table 6); type: cell-based; settings: Homo sapiens, 50% reduction in cell viability
Description: The IC50 values indicate the concentrations of avicin D/compound 8 required to induce a 50% reduction in call viability. These studies were done in Jurkat (human T-cell leukemia) cells and have been described previously in Haridas et al., 2001, which is incorporated herein by reference.

[28] = system: HEK293; test: MTT growth inhibition, HEK293; type: cell-based, human; settings: Homo sapiens, HEK293 cells, 72 hrs
Experimental: as §1, §2

[29] = system: Nrf2; test: Nrf2 activation, ARE-driven luciferase in Hep G2 cells; type: cell-based, human; settings: Hep G2 cells transfected with hARE-luc, luciferase activity
Experimental: Activation of Nrf2 was assessed by measuring the antioxidant response element (ARE)-mediated gene expression as described previously by Haridas et al., 2004, which is incorporated herein by reference. Briefly, ARE is a cis-acting regulatory sequence identified in the promoter region of several genes encoding phase 2 detoxification enzymes, that binds to Nrf2. Hep G2 (human hepatocarcinoma) cells were transfected with a human ARE-driven luciferase (luc) containing plasmid, hARE-luc. Following exposure to avicin D/compound 8, the luciferase activity induced in these cells was measured using a dual-luciferase assay kit (Promega) according to the manufacturer's protocol.

[30] = system: BT474 M1; test: MTT growth inhibition, BT474 M1; type: cell-based; settings: Homo sapiens, BT474M1, BT474 M1 cells, 72 hrs
Experimental: as §1, §2

[31] = system: JEKO-1; test: MTT growth inhibition, JEKO-1; type: cell-based; settings: Homo sapiens, JEKO-1 cells, 72 hrs
Experimental: as §1, §2

[32] = system: MOLT4; test: MTT growth inhibition, MOLT4; type: cell-based; settings: Homo sapiens, MOLT-4, MOLT4 cells, 72 hrs
Experimental: as §1, §2

[33] = system: MINO; test: MTT growth inhibition, MINO; type: cell-based; settings: Homo sapiens, MINO cells, 72 hrs
Experimental: as §1, §2

[34] = system: PC3; test: MTT growth inhibition, PC3; type: cell-based; settings: Homo sapiens, PC-3, PC3 cells, 72 hrs
Experimental: as §1, §2

[35] = system: Raji; test: MTT growth inhibition, Raji; type: cell-based; settings: Homo sapiens, Raji cells, 72 hrs
Experimental: as §1, §2

[36] = system: MCF7; test: MTT growth inhibition, MCF7; type: cell-based; settings: Homo sapiens, MCF7 cells, 72 hrs
Experimental: as §1, §2

Which IC50 [1] does the source give for C=CC(C)(O)CCC1OCC1C(=O)O[C@@H]1C(C)O[C@@H](O[C@](C)(C=C)CC/C=C(\CO)C(=O)O[C@H]2C[C@@]3(C(=O)O[C@@H]4OC(CO)[C@@H](O)C(O)C4O[C@@H]4OC(C)[C@H](O[C@@H]5O[C@@H](CO)[C@H](O)[C@@H]5O)C(O[C@@H]5OC(CO)[C@@H](O)C(O)C5O)C4O)C(CC2(C)C)C2=CCC4[C@@]5(C)CC[C@H](O[C@@H]6OC(CO[C@@H]7OC(C)[C@H](O)C(O)C7O[C@@H]7OC[C@@H](O)C(O)C7O)[C@@H](O)C(O)C6NC(C)=O)C(C)(C)C5CC[C@@]4(C)[C@]2(C)C[C@H]3O)C(O)C1O (stereo partly drawn) [Compound 8] here?
Its IC50 is 210 nM.

What about the IC50 [2] of the same compound?
The IC50 was 12000 nM.

And the IC50 [3]?
Its IC50 is 190 nM.

What about the IC50 [4] of the same compound?
The IC50 was 2500 nM.

And the IC50 [5]?
Its IC50 is 30 nM.

And the IC50 [6]?
The IC50 was 800 nM.

And the IC50 [7]?
The IC50 was 80 nM.

And the IC50 [8]?
The IC50 was 1200 nM.

And the IC50 [9]?
Its IC50 is 140 nM.

And the IC50 [10]?
The IC50 was 490 nM.

What about the IC50 [11] of the same compound?
The IC50 was 310 nM.

And the IC50 [12]?
Its IC50 is 220 nM.

And the IC50 [13]?
The IC50 was 340 nM.

What about the IC50 [14] of the same compound?
The IC50 was 630 nM.

What about the IC50 [15] of the same compound?
Its IC50 is 140 nM.

What about the IC50 [16] of the same compound?
The IC50 was 1870 nM.

And the IC50 [17]?
The IC50 was 1400 nM.

What about the IC50 [18] of the same compound?
The IC50 was 900 nM.

And the IC50 [19]?
The IC50 was 420 nM.

What about the IC50 [20] of the same compound?
Its IC50 is 80 nM.

And the IC50 [21]?
Its IC50 is 90 nM.

What about the IC50 [22] of the same compound?
Its IC50 is 280 nM.

What about the IC50 [23] of the same compound?
Its IC50 is 310 nM.

And the IC50 [24]?
Its IC50 is 160 nM.

And the IC50 [25]?
Its IC50 is 150 nM.

What about the IC50 [26] of the same compound?
The IC50 was 1200 nM.

And the IC50 [27]?
Its IC50 is 40 nM.

And the IC50 [28]?
The IC50 was 6800 nM.

What about the “Fold Nrf2 activation” value [29] of the same compound?
Its value is 0.98.

And the IC50 [30]?
The IC50 was 700 nM.

And the IC50 [31]?
The IC50 was 160 nM.

And the IC50 [32]?
Its IC50 is 200 nM.

What about the IC50 [33] of the same compound?
The IC50 was 60 nM.

What about the IC50 [34] of the same compound?
Its IC50 is 190 nM.

What about the IC50 [35] of the same compound?
The IC50 was 620 nM.

What about the IC50 [36] of the same compound?
The IC50 was 2600 nM.
